The supplement of paper PMC6045584
± gives the standard deviation of the averaged measurements.

How the values were obtained:
[1] = compound: COc1cc2c(Oc3ccc(NC(=O)C4(C(=O)Nc5ccc(F)cc5)CC4)cc3F)ccnc2cc1OCCCN1CCOCC1 [FORETINIB]; experiment: surviving fraction relative to DMSO-only wells; higher = less growth inhibition; details: exposure time: 5 days
Summary of the method: (§1)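 For each tumour cell line, log-phase cells were put into 384-well plates at 250–500 cells per well, then after 24 hours exposed continuously for five days to inhibitors at 0.5, 1, 5, 10, 50, 100, 500 and 1000 nM. Viability was assessed by CellTiter-Glo luminescence, with surviving fraction expressed relative to the median of DMSO-only wells. Lines were screened three times and retained only if replicate Pearson r exceeded 0.7 and median Z' exceeded 0.3.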

[2] = compound: NS(=O)(=O)OC[C@@H]1C[C@@H](n2ccc3c(N[C@H]4CCc5ccccc54)ncnc32)C[C@@H]1O [MLN-4924]; experiment: as above; details: exposure time: 5 days
Summary of the method: as §1

| Test System | surviving fraction ([1]; 0.5 nM) | surviving fraction ([1]; 1 nM) | surviving fraction ([1]; 5 nM) | surviving fraction ([1]; 10 nM) | surviving fraction ([1]; 50 nM) | surviving fraction ([1]; 100 nM) | surviving fraction ([1]; 500 nM) | surviving fraction ([1]; 1000 nM) | surviving fraction ([2]; 0.5 nM) | surviving fraction ([2]; 1 nM) | surviving fraction ([2]; 5 nM) | surviving fraction ([2]; 10 nM) | surviving fraction ([2]; 50 nM) | surviving fraction ([2]; 100 nM) | surviving fraction ([2]; 500 nM) | surviving fraction ([2]; 1000 nM) |
| --- | --- | --- | --- | --- | --- | --- | --- | --- | --- | --- | --- | --- | --- | --- | --- | --- |
| S68 BREAST | 0.862 ± 0.072 | 0.875 ± 0.33 | 1.35 ± 0.14 | 0.916 ± 0.15 | 1.05 ± 0.082 | 0.78 ± 0.059 | 0.313 ± 0.025 | 0.331 ± 0.077 | 0.837 ± 0.21 | 0.964 ± 0.11 | 0.764 ± 0.18 | 1.07 ± 0.19 | 0.6 ± 0.074 | 0.326 ± 0.05 | 0.172 ± 0.024 | 0.105 ± 0.007 |
| CHLA90 AUTONOMIC GANGLIA | 0.983 ± 0.048 | 1.1 ± 0.24 | 0.977 ± 0.069 | 0.909 ± 0.045 | 0.962 ± 0.13 | 0.941 ± 0.12 | 0.62 ± 0.11 | 0.493 ± 0.12 | 1.006 ± 0.0078 | 0.969 ± 0.05 | 0.984 ± 0.062 | 1.03 ± 0.019 | 1.2 ± 0.065 | 0.993 ± 0.028 | 0.697 ± 0.13 | 0.525 ± 0.041 |
| CASKI CERVIX | 0.902 ± 0.072 | 0.929 ± 0.013 | 0.962 ± 0.019 | 0.943 ± 0.018 | 0.988 ± 0.062 | 0.976 ± 0.06 | 0.322 ± 0.026 | 0.188 ± 0.0057 | 0.955 ± 0.033 | 0.961 ± 0.028 | 1.04 ± 0.084 | 1.03 ± 0.082 | 0.507 ± 0.017 | 0.301 ± 0.016 | 0.168 ± 0.013 | 0.153 ± 0.0032 |
| HT1080 SOFT TISSUE | 1.01 ± 0.026 | 1.06 ± 0.037 | 1 ± 0.017 | 1.01 ± 0.033 | 1.04 ± 0.048 | 0.996 ± 0.017 | 0.779 ± 0.025 | 0.3927 ± 0.0032 | 1.074 ± 0.0072 | 1.05 ± 0.047 | 1.112 ± 0.0055 | 1.14 ± 0.045 | 0.9977 ± 0.0078 | 0.705 ± 0.042 | 0.223 ± 0.022 | 0.11 ± 0.0061 |
| KPD BONE | 1.05 ± 0.059 | 1.03 ± 0.029 | 1.09 ± 0.03 | 1.11 ± 0.026 | 1.07 ± 0.04 | 1.04 ± 0.018 | 0.63 ± 0.037 | 0.303 ± 0.028 | 0.9553 ± 0.0032 | 0.985 ± 0.028 | 1.04 ± 0.057 | 1.09 ± 0.094 | 0.921 ± 0.045 | 0.736 ± 0.048 | 0.239 ± 0.017 | 0.183 ± 0.022 |
| HCC1954 BREAST | 0.975 ± 0.071 | 1.16 ± 0.25 | 1.09 ± 0.08 | 1.14 ± 0.1 | 0.965 ± 0.14 | 0.903 ± 0.05 | 0.6953 ± 0.006 | 0.418 ± 0.068 | 1.12 ± 0.082 | 1.13 ± 0.045 | 1.09 ± 0.049 | 1.17 ± 0.3 | 0.656 ± 0.075 | 0.518 ± 0.021 | 0.1795 ± 0.0014 | 0.112 ± 0.016 |
| MDAMB468 BREAST | 1.02 ± 0.03 | 1.05 ± 0.059 | 1.12 ± 0.077 | 1.09 ± 0.03 | 1.15 ± 0.086 | 1.06 ± 0.076 | 0.928 ± 0.082 | 0.356 ± 0.014 | 1.15 ± 0.068 | 1.09 ± 0.062 | 1.13 ± 0.1 | 1.04 ± 0.11 | 0.436 ± 0.0053 | 0.302 ± 0.05 | 0.18 ± 0.0087 | 0.178 ± 0.021 |
| SNU475 LIVER | 1.05 ± 0.052 | 1.03 ± 0.025 | 0.957 ± 0.087 | 1 ± 0.036 | 0.967 ± 0.016 | 0.979 ± 0.035 | 0.853 ± 0.055 | 0.502 ± 0.03 | 0.976 ± 0.031 | 1.04 ± 0.031 | 1.04 ± 0.023 | 1.04 ± 0.062 | 1.12 ± 0.059 | 1.08 ± 0.046 | 0.663 ± 0.036 | 0.53 ± 0.012 |
| VCAP PROSTATE | 0.975 ± 0.059 | 0.96 ± 0.13 | 1.12 ± 0.094 | 1.03 ± 0.082 | 1.11 ± 0.1 | 1.08 ± 0.2 | 0.547 ± 0.09 | 0.4 ± 0.044 | 0.977 ± 0.06 | 1.08 ± 0.074 | 1.08 ± 0.15 | 0.926 ± 0.035 | 0.526 ± 0.029 | 0.401 ± 0.088 | 0.198 ± 0.046 | 0.169 ± 0.079 |
| NOS1 BONE | 1.12 ± 0.43 | 1.04 ± 0.052 | 1 ± 0.063 | 0.98 ± 0.099 | 0.79 ± 0.058 | 0.749 ± 0.028 | 0.28 ± 0.039 | 0.114 ± 0.0078 | 0.988 ± 0.11 | 1.02 ± 0.11 | 1.23 ± 0.23 | 1.29 ± 0.21 | 1.22 ± 0.1 | 1.04 ± 0.14 | 0.637 ± 0.083 | 0.506 ± 0.033 |
| H23 LUNG | 1.04 ± 0.058 | 1.07 ± 0.073 | 1.06 ± 0.073 | 0.982 ± 0.035 | 0.976 ± 0.079 | 0.986 ± 0.08 | 0.889 ± 0.024 | 0.388 ± 0.015 | 0.992 ± 0.05 | 1.01 ± 0.053 | 1.07 ± 0.044 | 1.09 ± 0.049 | 1.18 ± 0.083 | 0.886 ± 0.073 | 0.14 ± 0.01 | 0.082 ± 0.004 |
| SUM44 BREAST | 1.14 ± 0.27 | 1.19 ± 0.36 | 1.18 ± 0.27 | 1.23 ± 0.31 | 1.19 ± 0.21 | 1.26 ± 0.32 | 1.11 ± 0.17 | 1.12 ± 0.19 | 1.22 ± 0.37 | 1.27 ± 0.4 | 1.27 ± 0.33 | 1.23 ± 0.36 | 0.785 ± 0.24 | 0.63 ± 0.22 | 0.486 ± 0.13 | 0.495 ± 0.17 |
| HCT15 LARGE INTESTINE | 1.08 ± 0.1 | 1.09 ± 0.084 | 1.06 ± 0.09 | 1.05 ± 0.073 | 1.07 ± 0.091 | 1.11 ± 0.097 | 0.217 ± 0.046 | 0.203 ± 0.042 | 1.06 ± 0.015 | 1.05 ± 0.095 | 1.07 ± 0.042 | 1.08 ± 0.065 | 0.966 ± 0.11 | 0.906 ± 0.11 | 0.299 ± 0.065 | 0.166 ± 0.041 |
| HU09 BONE | 0.923 ± 0.11 | 1.01 ± 0.063 | 1 ± 0.08 | 0.958 ± 0.082 | 0.625 ± 0.1 | 0.496 ± 0.087 | 0.201 ± 0.016 | 0.0877 ± 0.0029 | 0.948 ± 0.097 | 0.931 ± 0.076 | 1.04 ± 0.03 | 1.15 ± 0.048 | 1.01 ± 0.096 | 0.707 ± 0.052 | 0.296 ± 0.0049 | 0.26 ± 0.018 |
| SUM149 BREAST | 0.95 ± 0.004 | 0.912 ± 0.011 | 1.04 ± 0.17 | 0.9 ± 0.0082 | 0.831 ± 0.036 | 0.969 ± 0.13 | 0.353 ± 0.05 | 0.409 ± 0.021 | 1.08 ± 0.13 | 1.01 ± 0.16 | 1.09 ± 0.13 | 1.056 ± 0.0092 | 0.86 ± 0.073 | 0.555 ± 0.046 | 0.0803 ± 0.017 | 0.066 ± 0.003 |
| A549 LUNG | 1.083 ± 0.0085 | 1.1 ± 0.018 | 1.08 ± 0.028 | 1.05 ± 0.016 | 1.06 ± 0.045 | 1.06 ± 0.041 | 0.703 ± 0.012 | 0.542 ± 0.021 | 1.061 ± 0.0093 | 1.05 ± 0.034 | 1.04 ± 0.023 | 1 ± 0.034 | 1.11 ± 0.041 | 1.1 ± 0.024 | 0.781 ± 0.011 | 0.417 ± 0.044 |
| LM7 BONE | 1.02 ± 0.028 | 1.04 ± 0.06 | 1.05 ± 0.016 | 1.02 ± 0.011 | 0.997 ± 0.015 | 1.03 ± 0.058 | 0.725 ± 0.042 | 0.216 ± 0.013 | 0.919 ± 0.081 | 1.02 ± 0.026 | 1.09 ± 0.059 | 0.946 ± 0.034 | 0.486 ± 0.033 | 0.256 ± 0.026 | 0.1 ± 0.02 | 0.1 ± 0.0098 |
